Several values for one entry are separate records, joined by “and”; a condition that tells them apart may be missing. Identical values can stand only once. Entries after “also recorded” stand apart in the source; their conditions may differ. Counter-ions that a name gives are not always drawn. Like-named read-outs stand apart in the source and are kept apart here.
Tests used:
[1] = tested on: PAK; settings: cited from earlier work
[2] = tested on: 12-LO; settings: cited from earlier work
[3] = tested on: c-jun amino terminal kinase (JNK); settings: cited from earlier work
[4] = tested on: CHO-AT1a cells; settings: cited from earlier work; for inhibition of 12(S)-HETE-induced mitogenic effects (pertussis toxin): pretreatment of cells
[5] = tested on: 12-LO; settings: Scheidegger et al. 1997; cited from earlier work
[6] = tested on: CHO-AT1a cells; settings: cited from earlier work
[7] = tested on: 12(S)-HETE receptor (CHO-AT1a cells); assay: [3H]12(S)-HETE binding to CHO-AT1a cells; design: species or system Chinese hamster; settings: for blockade/displacement of [3H]12(S)-HETE binding: CHO-AT1a cells, 4° C.
Procedure: Kinetics of [^3 H]12(S)-HETE binding to CHO-AT1a cells. FIGS. 1 and 2 are a competition curves which examine the specificity of [^3 H]12(S)-HETE binding. CHO-AT1a cells were grown to confluence in 24 well tissue culture dishes in HAM's F12 medium containing 10% fetal calf serum. The cells were then rinsed and placed in fresh medium, HAM's F12/HEPES with no other additives (450 µl per well). Serial dilutions of unlabeled 12(S)-HETE or DuP654 were added to the wells. Commercial unlabeled 12(S)-HETE (BioMol Corp.) was dried and reconstituted in ethanol to obtain a stock solution of 5 mM. DuP654 was dissolved in DMSO to get a stock solution of 5 mM. These were then serially diluted and added in a volume of 1 u1 to the wells to obtain the final concentrations indicated. Then [^3 H]12(S)-HETE (10,000 cpm in a volume of 50 µl per well) was added from a stock solution obtained by adding the tracer to the medium. The plates were then incubated at 4° C. with continuous shaking for 2 hr. The cells were then washed 2 times with cold PBS and lysed in 0.3N NaOH (200 u1). Radioactivity in the cell lysates was quantitated in scintillation counter. Affinities and binding constants were obtained using […] computer software (Mlab, Civilized Software Inc., Bethesda, Md.).
Tritrated 12(S)-HETE binding is blocked by unlabeled 12(S)-HETE. DuP654, a 12(S)-HETE receptor antagonist, was shown also to block 12(S)-HETE at a concentration of 0.1 μM in both AT1a Σ and AT1a 27 cell types, two clones of CHO cells which overexpress the AII1a receptor. The cells were grown as described in Example 1.
Blockade of 12(S)-HETE binding by pertussis toxin. Cells were grown as described in Example 1. Prior to addition of drug (12(S)-HETE or DuP654) to the cells, the cultures were preincubated in HAM's F12 medium +0.1% BSA for two hours at 37° C. with or without 100 ng/ml pertussis toxin. Serial dilutions of unlabeled 12(S)-HETE or DuP654 were added, followed by [^3 H]12(S)-HETE as described for Example 1. After incubation and washing, radioactivity in the cell lysates was quantitated. As discussed above, pertussis toxin could also ablate 12(S)-HETE-induced mitogenic effects. This implicates the involvement of a Gi -protein-coupled receptor.

[8] = tested on: CHO-AT1a cells; assay: Growth/mitogenesis of CHO-AT1a cells; assay type: cell-based, Chinese hamster
Procedure: Partial blockade of 12(S)-HETE mitogensis by the specific angiotensin AT1a receptor antagonist, Losartan, in CHO-AT1a cells. (FIG. 5) CHO-AT1a cells were plated in 12-well dishes (about 5-10,000 cells per well) for 24 hr. in growth medium consisting of HAM's, F12+10% FCS. They were then serum depleted for 72 hours by replacing the medium with HAM's F12+0.1% BSA. This medium was then freshly replaced along with AII or 12-HETE (0.1 μM each) prior to addition of drug to the cells. Losartan was added as a solution in water to the cells 15 min. prior to the addition of AII or 12-HETE. Fresh medium containing the same concentrations of AII or 12(S)-HETE plus Losartan was replaced every 48 hours. At the end of 8 days, the medium was removed, and 1 ml trypsin was added per well followed by 1 ml isoton after 3 min. These trypsinized cells were counted on a Coulter counter. […] 12-HETE binding (FIG. 4).
The three cell lines, CHO-AT1a, CHO-AT1b and mock transfected CHO cells were gifts from Dr. Eric Clauser (Inserm Unit, Paris, France). These cells were plated in 12 well dishes in HAM's F12 medium +10% FCS. After 72 hours serum depletion in HAM's F12+0.05% FCS, the cells were treated with AII or 12(S)-HETE (0.1 μM). Cells counts (after trypsinization) were taken at 48 hour intervals and fresh medium along with AII or 12-HETE added at these 48 hour intervals.

[9] = tested on: Human Aortic Endothelial Cells; assay: Monocyte adhesion to human aortic endothelial cells, monocytes treated with 12(S)-HETE; assay type: cell-based; settings: monocytes with 10^-9 M 12(S)-HETE, 12 minutes
Procedure: Neutrophil binding is not increased. […] See Example 10.
Monocytes were incubated with 10^-9 M 12(S)-HETE for 12 minutes at room temperature (RT) or 37° C. or left untreated at room temperature and assayed for monocytes adhesion. Eight fields were counted for each experiment.

[10] = tested on: Human Aortic Endothelial Cells; assay: Monocyte binding to human aortic endothelial cells, endothelial cells treated; assay type: cell-based
From the text: Lipoxygenases (LO) are metabolic enzymes which catalyze the stereospecific oxygenation of polyunsaturated fatty acids to hydroperoxy fatty acids (Hamberg et al., J. Biol. Chem. 242:5329-5335 (1967)). The physiological function of 12-LO, the mammalian enzyme which catalyzes the oxygenation of arachidonic acid to (S)-12-hydroperoxyeicosatetraenoic acid (12-HPETE) and (S)-12-hydroxyeicosatetraenoic acid (12(S)-HETE), is unclear. 12-LO exists as two isoforms which are the products of different genes, leukocyte-type 12-LO and platelet-type 12-LO, which share 65% homology at the amino acid level (Izumi et al., Proc. Natl. Acad. Sci., USA 87:7477-7481 (1990); Funk et al., Proc. Natl. Acad. Sci. USA 87:5638-5642 (1990)). […] 12(S)-HETE has direct mitogenic and hypertrophic effects in vascular cells. […] In addition, glucose-induced monocyte adhesion was abrogated by the inhibition of 12-LO using both phenidone, a non-specific LO inhibitor, and baicalein, a more specific 12-LO inhibitor. The adhesion caused by 12-LO products appears to be monocyte-specific.

[11] = tested on: 12(S)-HETE receptors on the human epidermal cell line SCL-II; settings: Arenberger et al. 1993; cited from earlier work
[12] = tested on: PAK; assay: PAK activity in CHO-AT1a cells; assay type: cell-based, Chinese hamster; settings: 10^-7 M 12(S)-HETE, 10 minutes
Procedure: CHO-AT1a cells were gently washed and placed in depletion medium (HAM's F-12 medium containing 1 mg.backslash.ml BSA and 20 mM HEPES, ph 7.4) for 72 hours prior to use. After incubation for 30 minutes, the cells were treated with 10^-7 M 12(S)-HETE or with ethanol. The 12(S)-HETE treatment was terminated by washing twice with PBS and adding 300 μl lysis buffer (50 mM HEPES. pH 7.5, containing 150 mM NaCl, 5 mM MgCl2, 1 mM EGTA, 50 mM NaF, 10 mM sodium pyrophosphate, 1% NP-40, 2.5% glycerol and 1 mM Na3 VO4 containing the protease inhibitors phenylmethylsulfonyl fluoride, leupeptin, and aprotonin) followed by sedimentation at 14,000× g at 4° C. for ten minutes. Protein determination was performed by the Bradford method. […] PAK activity was measured as follows. […] ATP, the kinase activity was measured in 60 μl kinase buffer. […] Results are expressed as stimulation over control.
For the PBD-transfected group, CHO-AT1a cells were transiently transfected with 15 μg PBD plasmid. […] The bottom panel illustrates the densitometric quantification. […] Results are expressed as stimulation over control. The PAK activity was measured as described in Example 7.
Cells were pretreated with different concentrations of the PI-3 kinase inhibitor, LY294002 or DMSO (control) for 30 minutes, then treated with 10^-7 M 12(S)-HETE or ethanol (control) for 10 minutes. PAK activity was measured as described in Example 7.

[13] = tested on: AII-induced proliferation; settings: cited from earlier work
[14] = HAEC incubated four hours with 12(S)-HETE, 240 min

AII: growth factor and potent vasoconstrictor AII
PAK activation by AII [1]: activate | stimulation of 12-LO activity in smooth muscle cells [2]: stimulate | JNK activation ([3]; Wen et al. 1997): activate | mitogenic effects in CHO-AT1a cells ([4]; Wen et al. 1996): sustained increase in DNA synthesis as well as cell number | stimulation of 12-LO activity in murine macrophages [5]: stimulate

AII: growth factor and potent vasoconstrictor AII (DRVYIHPF; Angiotensin-2; UniProt P01019 25-32, looked up)
increase in 12(S)-HETE formation [6]: 2 fold | increase in cell proliferation ([4]; CHO-AT1a cells, 0.1 µM): 2 fold

pertussis toxin
blockade of JNK activation by 12(S)-HETE ([3]; 12(S)-HETE-induced): block | inhibition of 12(S)-HETE-induced mitogenic effects (pertussis toxin) [4]: completely abrogated; also recorded: ablate | inhibition of 12(S)-HETE-induced mitogenic effects (pertussis toxin) ([4]; listed as Pertussis toxin): ablate | blockade/displacement of [3H]12(S)-HETE binding [7]: Blockade | blockade/displacement of [3H]12(S)-HETE binding ([7]; listed as Pertussis toxin): blocked

CCCCc1nc(Cl)c(CO)n1Cc1ccc(-c2ccccc2-c2nn[nH]n2)cc1 [Losartan, 2-N-butyl-4-chloro-5-hydroxymethyl-1-[(2'-(1H-tetrazol-5-yl)biphenyl-4-yl)methyl]imidazole, potassium salt]
inhibition of 12(S)-HETE-induced mitogenic effects ([8]; 12(S)-HETE-induced, CHO-AT1a cells, potassium salt): partially blocked | inhibition of AII-induced proliferative effects ([8]; AII-induced, CHO-AT1a cells, potassium salt): fully inhibiting; also recorded: fully blocked | blockade/displacement of [3H]12(S)-HETE binding ([7]; potassium salt): partially blocked

CCCCC/C=C\C[C@H](O)/C=C/C=C\C/C=C\CCCC(=O)O [12(S)-HETE, (S)-12-hydroxyeicosatetraenoic acid]
Monocyte Adhesion to Human Aortic Endothelial Cells, 12(S)-HETE (37° C.) ([9]; 37° C., P = 0.01): 39.0 ± 9.3 | Monocyte Adhesion to Human Aortic Endothelial Cells, 12(S)-HETE (RT) ([9]; RT, exp. 1 P = 0.016, exp. 2 P = 0.001): 39.6 ± 12.5 and 45.4 ± 7.6 | average increase in monocyte binding as compared to untreated cells [10, 14]: 3 fold | range of increase in monocyte binding as compared to untreated cells [10, 14]: 1.5-5 fold

O=C1CCN(c2ccccc2)N1 [phenidone]
inhibition of glucose-induced monocyte adhesion [10]: abrogated

Oc1c(Cc2ccccc2)ccc2ccccc12 [DuP654, 2-phenylmethyl-1-naphthol]
reduction of 12(S)-HETE-induced cell growth at 0.1 μM ([8]; 12(S)-HETE-induced, 0.1 μM): significantly reduced | inhibition of 12(S)-HETE-induced mitogenic effects ([8]; 12(S)-HETE-induced, CHO-AT1a cells): completely inhibit; also recorded: Complete inhibition | reduction of AII-induced cell growth at 0.1 μM ([8]; AII-induced, 0.1 μM): significantly reduced | inhibition of 12(S)-HETE binding to SCL-II cells [11]: specifically inhibit | blockade of 12(S)-HETE binding at 0.1 μM ([7]; 0.1 μM, AT1a Σ and AT1a 27 clones): block

O=c1cc(N2CCOCC2)oc2c(-c3ccccc3)cccc12 [LY294002]
inhibition of 12(S)-HETE-induced PAK activation [12]: inhibition

O=c1cc(-c2ccccc2)oc2cc(O)c(O)c(O)c12 [baicalein]
inhibition of proliferative effects of AII [13]: inhibited | inhibition of glucose-induced monocyte adhesion [10]: abrogated | inhibition of AII proliferative effects ([4]; AII-induced, CHO-AT1a cells): inhibited
